Data published in US20220146526A1, “METHOD FOR EVALUATING SAMPLE, ANALYSIS METHOD, METHOD FOR DETECTING DEGRADED SAMPLE, MARKER FOR DETECTING DEGRADED BLOOD PLASMA SAMPLE, AND MARKER FOR DETECTING DEGRADED SERUM SAMPLE” (SHIMADZU CORPORATION, priority 2019, published 2022).
Counter-ions that a name gives are not always drawn. Values belong to the molecule of their own block, whether it stands above or below them.

What was measured:
Assay type in all cases: physicochemical, human
[1] = GC/MS of blood plasma sample: number of times of freezing and thawing (Table C); details: for Rate of increase or decrease: detection intensity relative to 1 at 2 times; for Increase or decrease: detection intensity
Protocol: (§1) At room temperature, 5 mL of blood from a healthy subject was taken into a blood-collecting vessel containing EDTA, and the blood-collecting vessel was inverted for mixing, then cooled, and allowed to stand at 4° C. Here, in order to investigate how the detection intensity of molecules contained in the sample was affected in a case where the time to cooling was set to 5 minutes or more as compared to that in a case where the time to cooling was set to 1 minute or less, preparations were performed under both the former condition and the latter condition. After standing, the blood sample was subjected to centrifugation under a condition of 4° C., 3000 rpm, and 15 minutes. […] After centrifugation, the blood-collecting vessel was left to stand at room temperature for 30 minutes, and the blood plasma was isolated during this 30 minutes. The obtained blood plasma sample was frozen and stored. Here, in order to investigate how the detection intensity of molecules contained in the sample was affected in cases where freezing and thawing was performed 4 times, 6 times, and 10 times after freezing as compared to that in a case where freezing and thawing was performed 2 times after freezing, freezing and thawing was performed under the respective conditions of 2, 4, 6, and 10 times.
(§2) Frozen blood plasma samples and serum samples were subjected to GC/MS or LC/MS. In GC/MS, the blood plasma samples and serum samples were subjected to methoxymation and trimethylsilylation and then introduced to GC-MS.
(§3) GC/MS was conducted using GCMS·TQ8040 (Shimadzu Corporation) that was a GC·MS equipped with AOC·20i (Shimadzu Corporation) as an autosampler.
(§4) Column: BPX5 (inner diameter of 0.25 mm, length of 30 m, and film thickness of 0.25 μm) (SGE)
(§5) Column temperature: maintained at 60° C. for 2 minutes, then raised at 15° C./min, and maintained at 330° C. for 3 minutes.
(§6) Inlet temperature: 250° C.
(§7) Carrier gas control mode: constant linear velocity of 39.0 cm/sec
(§8) Sample introduction method: split (split ratio of 30:1) Injection volume: 1 μL
(§9) Ionization method: electron ionization
(§10) Ionization current: 60 μA
(§11) Interface temperature: 280° C.
(§12) Ion source temperature: 200° C.
(§13) Mode: multiple reaction monitoring (MRM)
The rate of increase or decrease in Table C is the value of detection intensity relative to 1 that is the detection intensity in a case where the number of times of freezing and thawing is set to 2 times.

[2] = GC/MS of blood plasma sample: time from blood collection to centrifugation (Table A); details: for Rate of increase or decrease: detection intensity relative to 1 at 15 minutes; for Rate of increase or decrease / Increase or decrease: blood collection to centrifugation; for Increase or decrease: detection intensity
Protocol: as §1, §2, §3, §4, §5, §6, §7, §8, §9, §10, §11, §12, §13
The rate of increase or decrease in Table A is the value of detection intensity relative to 1 that is the detection intensity in a case where the time from blood collection to centrifugation is set to 15 minutes.

[3] = GC/MS of serum sample: time from centrifugation to isolation (Table H); set-up: key to Rate of increase or decrease / Rate of increase or decrease (first value, increase): detection intensity relative to 1 at 30 min centrifugation-to-isolation; details: for Rate of increase or decrease: detection intensity relative to 1 at 30 minutes; for Increase or decrease: detection intensity
In short: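 Blood was centrifuged at room temperature, 3500 rpm, 5 min, and the vessel left at room temperature for 30 min, 1 h or 6 h before serum isolation. Serum was methoxymated, trimethylsilylated and analysed by GC/MS with electron ionization in MRM mode; intensities expressed relative to the 30-min condition (=1).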

[4] = GC/MS of serum sample: number of times of freezing and thawing (Table I); set-up: key to Rate of increase or decrease / Rate of increase or decrease (first value, increase): detection intensity relative to 2 freeze-thaw cycles = 1; details: for Rate of increase or decrease: detection intensity relative to 1 at 2 times
In short: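 Serum was isolated after centrifugation at room temperature (3500 rpm, 5 min), frozen, and put through 2, 4, 6 or 10 freeze–thaw cycles. Samples were methoxymated and trimethylsilylated, then run by electron-ionization GC/MS in MRM mode on a BPX5 column (60 to 330 °C). Detection intensity is given relative to the 2-cycle sample, set as 1.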

[5] = GC/MS of serum sample: time from blood collection to centrifugation (Table G); details: blood collection to centrifugation; for Rate of increase or decrease: detection intensity relative to 1 at 15 minutes; for Increase or decrease: detection intensity
In short: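 Blood was held for varying times before centrifugation (room temperature, 3500 rpm, 5 min); serum was frozen, then methoxymated and trimethylsilylated for GC/MS with electron ionization in MRM mode. Values are detection intensities relative to the 15-minute collection-to-centrifugation condition, set as 1.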

[6] = LC/MS of serum sample: time from blood collection to centrifugation (Table J)
Protocol: (§14) After standing, the blood sample was subjected to centrifugation under a condition of room temperature, 3500 rpm, and 5 minutes. […] After centrifugation, the blood-collecting vessel was left to stand at room temperature, and the serum was isolated during this time. Here, in order to investigate how the detection intensity of molecules contained in the sample was affected in cases where the time during which the blood-collecting vessel was left at room temperature was set to 1 hour and 6 hours as compared to that in a case where the time was set to 30 minutes, preparations were performed under the respective conditions of 30 minutes, 1 hour, and 6 hours. The obtained serum sample was frozen and stored. Here, in order to investigate how the detection intensity of molecules contained in the sample was affected in cases where freezing and thawing was performed 4 times, 6 times, and 10 times after freezing as compared to that in a case where freezing and thawing was performed 2 times after freezing, freezing and thawing was performed under the respective conditions of 2, 4, 6, and 10 times.
as §2
(§15) Analysis column: Discovery HS F5-3 (inner diameter of 2.1 mm, length of 150 mm, film thickness of 3 μm) (Sigma-Aldrich)
(§16) Column temperature: 40° C.
(§17) (A) 0.1% formic acid (dissolved in water)
(§18) (B) 0.1% formic acid (dissolved in acetonitrile)
(§19) Flow velocity: 0.25 mL/min
(§20) Ionization method: electrospray
(§21) Temperature: • Desolvation Line (DL) temperature: 250° C. • Heat block temperature: 400° C. • Interface temperature: 300° C.
(§22) Gas flow rate: • Nebulizer gas flow rate: 3.0 L/min • Drying gas flow rate: 10.0 L/min • Heating gas flow rate: 10.0 L/min
as §13
The rate of increase or decrease in Table J is the value of detection intensity relative to 1 that is the detection intensity in a case where the time from blood collection to centrifugation is set to 15 minutes.

[7] = LC/MS of serum sample: number of times of freezing and thawing (Table M); set-up: key to Rate of increase or decrease: detection intensity relative to 1 at 2 freeze-thaw cycles
Protocol: as §14, §2, §15, §16, §17, §18, §19, §20, §21, §22, §13
The rate of increase or decrease in Table M is the value of detection intensity relative to 1 that is the detection intensity in a case where the number of times of freezing and thawing is set to 2 times.

[8] = freezing and thawing 6 times vs 2 times

Rate of increase or decrease ([6]; after 6 hours from blood collection to centrifugation, detection intensity relative to 1 at 15 minutes): 1.44
Increase or decrease ([6]; serum sample, LC/MS, detection intensity vs 15 minutes from blood collection to centrifugation): Increase
Time when compound is affected ([6]; serum sample, LC/MS, time from blood collection to centrifugation, detection intensity changed by 30% or more vs 15 minutes): After 6 hours
Rate of increase or decrease ([7]; 6 times of freezing and thawing, detection intensity relative to 1 at 2 times): 0.66
Number of times when compound is affected ([7]; serum sample, LC/MS, detection intensity changed by 30% or more vs 2 times of freezing and thawing): 6 times
Increase or decrease ([7]; serum sample, LC/MS, detection intensity vs 2 times of freezing and thawing): Decrease
Structure (SMILES): N[C@@H](CO)C(=O)O [Serine, serine]

Rate of increase or decrease ([1]; freezing and thawing 6 times): 0.68
Increase or decrease [1, 8]: Decrease
Rate of increase or decrease ([5]; after 4 hours): 1.47
Rate of increase or decrease ([5]; after 8 hours): 0.68
Increase or decrease ([5]; after 4 hours vs 15 minutes): Increase
Increase or decrease ([5]; after 8 hours vs 15 minutes): Decrease
Increase or decrease ([2]; after 4 hours vs 15 minutes): Different from individual
Rate of increase or decrease (second value, decrease) ([2]; different from individual to individual, individuals with decrease, relative to 1 at 15 minutes, collection to centrifugation, after 4 hours): 0.69
Rate of increase or decrease (first value, increase) ([2]; different from individual to individual, individuals with increase, relative to 1 at 15 minutes, collection to centrifugation, after 4 hours): 1.68
Structure (SMILES): O=C[C@H](O)[C@@H](O)[C@H](O)CO [Xylose]

More lines, now with the values behind:

Structure (SMILES): O=S(=O)(O)Oc1c[nH]c2ccccc12 [Indoxyl sulfate]
Rate of increase or decrease ([1]; freezing and thawing 6 times): 0.68
Increase or decrease [1, 8]: Decrease
Rate of increase or decrease ([2]; after 12 hours): 1.50
Increase or decrease ([2]; after 12 hours vs 15 minutes): Increase

Structure (SMILES): CCCCCCCCCCCCCCCCCC(=O)OCC(O)CO (stereo not shown) [Monostearin]
Rate of increase or decrease ([3]; after 6 hours): 2.08
Increase or decrease ([3]; after 6 hours vs 30 minutes): Increase
Rate of increase or decrease ([1]; freezing and thawing 6 times): 0.67
Increase or decrease [1, 8]: Decrease
Rate of increase or decrease ([4]; 10 times of freezing and thawing): 0.60
Number of times when compound is affected ([4]; serum sample, GC/MS, detection intensity changed by 30% or more vs 2 times of freezing and thawing): 10 times
Increase or decrease ([4]; serum sample, GC/MS, detection intensity vs 2 times of freezing and thawing): Decrease
Rate of increase or decrease ([5]; after 4 hours): 1.98
Increase or decrease ([5]; after 4 hours vs 15 minutes): Increase
Rate of increase or decrease ([2]; after 12 hours): 1.35
Increase or decrease ([2]; after 12 hours vs 15 minutes): Increase

Structure (SMILES): CCCCCCCCCCCCCCCCCCO [Octadecanol]
Rate of increase or decrease ([3]; after 1 hour): 2.08
Increase or decrease ([3]; after 1 hour vs 30 minutes): Increase
Increase or decrease [1, 8]: Different from individual
Rate of increase or decrease (second value, decrease) ([1]; different from individual to individual, individuals with decrease, relative to 1 at 2 times, freezing and thawing 6 times): 0.68
Rate of increase or decrease (first value, increase) ([1]; different from individual to individual, individuals with increase, relative to 1 at 2 times, freezing and thawing 6 times): 1.63
Rate of increase or decrease ([4]; serum, GC/MS, freezing and thawing 6 times): 1.64
Increase or decrease ([4]; detection intensity, serum, GC/MS, freezing and thawing 6 times vs 2 times): Increase
Increase or decrease ([5]; after 4 hours vs 15 minutes): Increase
Rate of increase or decrease ([2]; after 4 hours): 1.62
Increase or decrease ([2]; after 4 hours vs 15 minutes): Increase

Structure (SMILES): O=C(O)[C@H](O)[C@H](O)[C@H](O)CO [Ribonic acid]
Rate of increase or decrease ([1]; freezing and thawing 4 times): 1.62
Increase or decrease ([1]; freezing and thawing 4 times vs 2 times): Increase
Rate of increase or decrease ([5]; after 12 hours): 1.46
Increase or decrease ([5]; after 12 hours vs 15 minutes): Increase
Rate of increase or decrease ([2]; after 4 hours): 0.17
Increase or decrease ([2]; after 4 hours vs 15 minutes): Decrease
